Entries after “also recorded” stand apart in the source; their conditions may differ.
Tests used:
[1] = biological target: GSK3α (Homo sapiens (Human), UniProt P49840); assay: pThr231 tau phosphorylation plate-based assay in HEK-huTau cells transfected with GSK3α; type: cell-based; conditions: HEK-huTau cells transfected with human GSK3α; 10-point dose response, 2 hours; read-out: GSK3α IC50 (inhibition of pThr231)
Protocol: (§1) HEK293 or SH-SY5Y cells were obtained from American Type Culture Collection (ATCC, Manassas, VA) and cultured in Dulbecco's modified Eagle's medium (DMEM) supplemented with 10% fetal bovine serum (FBS), 10 units/ml penicillin, and 10 μg/ml streptomycin (all reagents were purchased from Gibco, Waltham, MA). Cell cultures were maintained in a humidified 5% (v/v) CO2/air environment at 37° C. When the cells reached 50-80% confluence, they were transfected with a complex consisting of a 3:1 ratio of FuGENE 6 Transfection Reagent (Promega, Madison, WI) and plasmid DNA. Plasmid DNA was balanced out across reactions using an empty plasmid so that the same amount of DNA was added per well. This transfection complex was prepared following the manufacturers protocol and added directly to the cell media for 24 or 48 hours prior to lysis.
(§2) 293T cells stably expressing human 2N4R Tau were transfected with appropriate cDNA plasmids. 24 hours following transfection cells were treated with compound in a 10-point dose-response (from 1000× stocks of compound) and lysates harvested 2 hours later with cell extraction buffer (Life Technologies Cat #BN0001) or RIPA Buffer with Halt protease/phosphatase inhibitors added.
(§3) For pThr231 assay: Lysate was diluted 1:100 in assay buffer and Total Tau and pTau T231 was assessed by plate-based ELISA as per manufacturer instructions (MSD Cat #K15121D-1). Total fluorescence was measured using an Envison plate reader.
(§4) To test the potency and isoform selectivity of GSK3 small molecule inhibitors, HEK-huTau cells were transfected with plasmids containing either human GSK3α or GSK3β. Twenty-four hours after transfection, compounds were added at a 10-point dose response curve (at a range of 30 μM-3 nM) for a total of 2 hours, and cell lysates were probed for total tau and pThr231 using a plate-based assay.

[2] = Drug exposure in blood and brain, free drug concentration in the brain; type: in vivo, Sprague Dawley rats; conditions: P10 rats
Protocol: (§5) Sprague Dawley rats were bred in-house and litters were injected with compound, I.P. at post-natal day 10. Rats were then euthanized at indicated times following drug administration. For tissue collection, animals were euthanized via decapitation, brains were quickly removed, and bisected sagitally. The right cortex, was isolated, placed into 2 mL microtubes along with a single 5 mm stainless steel bead and the left cortex were placed into 2 mL Lysing Matrix A tubes (MP Biomedicals, Santa Ana, CA), Both tubes were immediately snap frozen in liquid nitrogen.
Aqueous buffered homogenate was created from cortical tissue via bead beater, at a consistent homogenization factor, which was normalized by tissue weight. Total drug in brain was determined by measuring total exposure in brain in ng/ml (cortical tissue) via LC-MS/MS. This was then corrected to free concentration via an experimentally derived fu,br using rapid equilibrium dialysis with brain homogenate.
To determine drug exposure, blood and cortical tissue were analyzed at each time point following dosing.

[3] = tested on: tau phosphorylation at pThr231; assay: Rat developmental model of tau phosphorylation; type: in vivo, Sprague Dawley rats; conditions: P10 rats
Protocol: as §5
To determine whether a selective GSK3α inhibitor could also lower tau phosphorylation in a more physiological setting, 837646 was administered to rats at post-natal day 10. […] In the current experiment, 837646 was administered at 60, 20 and 10 mg/kg in P10 rats. The animals were sacrificed at several time points following treatment.

[4] = biological target: human GSK3β (Homo sapiens (Human), UniProt P49841); assay: pThr231 tau phosphorylation plate-based assay in HEK-huTau cells transfected with GSK3β; type: cell-based; conditions: HEK-huTau cells transfected with human GSK3β; 10-point dose response, 2 hours; read-out: GSK3β IC50 (inhibition of pThr231)
human GSK3β, sequence (P49841 whole entry): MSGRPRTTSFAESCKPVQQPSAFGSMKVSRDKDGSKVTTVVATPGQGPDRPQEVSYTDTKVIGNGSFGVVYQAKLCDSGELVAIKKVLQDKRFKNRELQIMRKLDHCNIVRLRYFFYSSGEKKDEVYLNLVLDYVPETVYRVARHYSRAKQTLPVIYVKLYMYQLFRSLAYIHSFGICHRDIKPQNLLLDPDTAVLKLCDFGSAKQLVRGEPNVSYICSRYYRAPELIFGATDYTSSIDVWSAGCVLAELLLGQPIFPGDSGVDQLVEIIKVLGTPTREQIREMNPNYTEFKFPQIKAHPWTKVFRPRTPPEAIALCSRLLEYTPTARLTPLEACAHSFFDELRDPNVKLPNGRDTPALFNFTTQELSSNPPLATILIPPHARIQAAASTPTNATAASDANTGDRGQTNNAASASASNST
Protocol: as §1, §2, §3, §4

[5] = biological target: GSK3α (Rattus norvegicus (Rat), UniProt P18265); assay: In vivo target engagement assay (chemoproteomics, kinobeads), GSK3α; conditions: P10 rat cortex
GSK3α (Rattus norvegicus (Rat), UniProt P18265), sequence (P18265 whole entry): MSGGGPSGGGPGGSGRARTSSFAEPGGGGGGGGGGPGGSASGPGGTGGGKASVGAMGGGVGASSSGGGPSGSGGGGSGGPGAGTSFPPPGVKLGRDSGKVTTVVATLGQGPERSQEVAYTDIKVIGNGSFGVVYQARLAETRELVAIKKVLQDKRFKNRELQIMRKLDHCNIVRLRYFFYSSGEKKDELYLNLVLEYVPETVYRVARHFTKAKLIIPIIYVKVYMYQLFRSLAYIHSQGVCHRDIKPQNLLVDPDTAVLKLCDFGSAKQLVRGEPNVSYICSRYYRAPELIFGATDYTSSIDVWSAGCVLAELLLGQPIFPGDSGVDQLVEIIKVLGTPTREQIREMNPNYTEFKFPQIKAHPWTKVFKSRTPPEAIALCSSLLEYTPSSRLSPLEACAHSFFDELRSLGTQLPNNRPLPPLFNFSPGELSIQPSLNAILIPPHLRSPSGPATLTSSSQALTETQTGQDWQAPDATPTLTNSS
Protocol: Chemoproteomics competition was used to evaluate inhibitor selectivity and target engagement in vivo. Frozen cortexes were prepared for homogenization with 1.2 mL of Lysis Buffer (50 mM Tris-HCl, 0.8% NP-40 ((octylphenoxy poly(ethyleneoxy) ethanol)), 5% glycerol, 150 mM NaCl, 1.5 mM MgCl2, 25 mM NaF, 1 mM sodium vanadate, 1 mM DTT, pH 7.5 and supplemented with protease inhibitors). Tissues were homogenized in FastPrep-24 5G instrument at maximum oscillations for 20 seconds. The resulting brain homogenate was clarified by centrifugation for 1 h at 145 000 g, 4° C. The protein concentration of the supernatant was determined by BCA assay and each sample was diluted to final concentration of 5 mg/mL with lysis buffer. […] The dry peptide mixture was reconstituted in 15 μL of 0.1% trifluoro acetic acid and analyzed on ID nanoLC-MS/MS platform using a standardized 140 min method. Peptides were separated on an Easy-Spray column (75 μm×50 cm, PepMAP C18, 1.9 μm) at 250 nL/min, analyzed on a QExactive HF mass spectrometer at data dependent acquisition (DDA) mode with MS1 at 60,000 and MS2 at 15,000 resolution, respectively. […]
To measure direct target engagement of the compound for both GSK3α and GSK3β competitive chemoproteomics methodology was used. […] Enriched proteins were analyzed by liquid chromatography coupled with tandem mass spectrometry. […]

GSK3α (Homo sapiens (Human), UniProt P49840), sequence (P49840 whole entry): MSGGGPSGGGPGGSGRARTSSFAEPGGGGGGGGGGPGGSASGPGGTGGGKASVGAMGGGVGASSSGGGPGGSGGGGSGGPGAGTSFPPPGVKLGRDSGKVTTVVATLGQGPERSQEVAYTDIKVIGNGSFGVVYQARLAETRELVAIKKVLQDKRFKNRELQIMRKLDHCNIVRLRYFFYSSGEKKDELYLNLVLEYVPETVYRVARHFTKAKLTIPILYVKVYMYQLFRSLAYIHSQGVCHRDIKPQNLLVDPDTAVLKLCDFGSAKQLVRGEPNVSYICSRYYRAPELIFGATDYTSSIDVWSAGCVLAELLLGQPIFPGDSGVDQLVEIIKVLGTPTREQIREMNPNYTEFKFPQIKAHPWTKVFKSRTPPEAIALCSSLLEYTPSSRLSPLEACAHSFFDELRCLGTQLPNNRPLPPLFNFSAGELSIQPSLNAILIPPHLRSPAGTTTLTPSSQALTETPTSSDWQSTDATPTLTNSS

SMILES: CCC1(c2cccc(C(F)(F)F)c2)C2=C(Nc3n[nH]cc31)C(F)C(C)(C)CC2=O (single isomer, unassigned) [Compound 837646, 4-ethyl-8-fluoro-7,7-dimethyl-4-(3-(trifluoromethyl)phenyl)-2,4,6,7,8,9-hexahydro-5H-pyrazolo[3,4-b]quinolin-5-one]
- IC50 [1]: 0.15 µM
- steady Cmax extending post injection [2]: 6 h
- tau phosphorylation at pThr231 vs vehicle, 24 hr ([3]; I.P., 20 or 60 mg/kg, 24 hr): significantly different from the vehicle group
- tau phosphorylation at pThr231 vs vehicle, 3 hours ([3]; I.P., 60, 20 and 10 mg/kg, 3 hours after administration): significant lowering of tau phosphorylation at pThr231; also recorded: reduction in tau phosphorylation at Thr231 at all doses tested
- IC50 [4]: 1 µM
- target engagement at GSK3α, 24 hr ([5]; 24 hr, both 60 mg/kg and 20 mg/kg): ~50%
- target engagement for GSK3α, 3 hours ([5]; three hours after dosing (Cmax, 60 mg/kg)): over 90%
